Literature values in patent publication US20110303570A1, “PACKAGE OF SOLID PHARMACEUTICAL PREPARATION” (Astellas Pharma Inc., priority 2009, published 2011).

Details: administered either orally or directly into the colon of a mammal

Bioavailability as gabapentin: high
Compound: CC(OC(=O)NCC1(CC(=O)O)CCCCC1)OC(=O)C(C)C (stereo not drawn) [1-{[(α-isobutanoyloxyethoxy)carbonyl]aminomethyl}-1-cyclohexane acetic acid]
